Measurements reported in patent US8779235B2, “Engineering single-gene-controlled staygreen potential into plants” (Pioneer Hi-Bred International, Inc., priority 2003, dated 2014).

Legend:
Type in all cases: in vivo, maize
acs6/acs6 plants [1] = experiment: dark-induced senescence of sheathed leaves, complementation of the acs6 mutant by exogenous ACC
Description: To examine if exogenous ACC could complement the acs6 mutant and reverse its staygreen phenotype, the third oldest, sixth, and ninth leaf from ACS6/ACS6, acs2/acs2, and acs6/acs6 plants were subject to dark-induced senescence at 20 DAP by covering them with sheaths for 7 days. All leaves were fully green at the onset of the experiment and remained attached to the plant. acs6/acs6 plants were watered daily with water or 100 μM ACC for 7 days. Following 7 days, dark-induced senescence had initiated in wild-type (i.e., ASC6/ASC6) leaves although it had not progressed to the extent observed following a 2 week dark treatment. […] Dark-induced senescence was also observed in leaf 3 of the acs2 homozygous mutant although it was less pronounced than that observed in the corresponding wild-type leaves.

acs6/acs6 plants [2] = experiment: Western analysis for Rubisco in leaves
Description: (§1) FIG. 20 Panel A illustrates chlorophyll data, Panel B soluble protein, and Panel C Rubisco expression. The level of chlorophyll a+b (Panel A) and soluble protein (Panel B) was measured in the third oldest leaf (Leaf 3), sixth oldest leaf (Leaf 6), and ninth oldest leaf (Leaf 9) of adult wild-type (i.e., ACS6/ACS6), acs21acs2, and acs61acs6 plants following dark treatment for 7 days. Plants were watered daily. Additional acs61acs6 plants were watered daily with 100 μM ACC during the treatment. acs61acs6 leaves watered with 100 μM ACC but kept unsheathed are also shown. The average and standard deviation of leaves from three individual plants is shown. (Panel C) Western analysis of the same leaves was performed using rice anti-Rubisco antiserum. Soluble protein from leaf samples of equal fresh weight was used.
B73 leaves were collected at the indicated times and ground in liquid nitrogen to a fine powder. One ml of extraction buffer [20 mM HEPES (pH 7.6), 100 mM KCl, 10% glycerol, 1 mM PMSF] was added to approximately 0.1 g frozen powder and mixed thoroughly. Cell debris was pelleted by centrifugation at 10,000 rpm for 10 min and the protein concentration determined as described (Bradford, 1976). […] The blots were washed twice with TPBS and the signal detected typically between 1 to 15 min using chemiluminescence (Amersham Corp). […]

acs6/acs6 plants [3] = experiment: chlorophyll a+b level in leaves after 7 day dark treatment
Description: as §1
Leaves were frozen in liquid nitrogen and ground to a fine powder. Samples of approximately 0.1 g were removed to a 1.5 ml tube and weighed. Chlorophyll was extracted 5× with 1 ml (or 0.8 ml) of 80% acetone. Individual extractions were combined and the final volume adjusted to 10 ml (or 15 ml) with additional 80% acetone. Chlorophyll content (a+b) was determined spectrophotometrically according to the methods of Wellburn (1994). […]

acs6/acs6 plants [4] = experiment: total soluble leaf protein after 7 day dark treatment; settings: watered with 100 μM ACC
Description: as §1
For total protein isolation, leaves of B73 or mutant plants were collected at the indicated times, quick-frozen in liquid nitrogen and ground to a fine powder. […] Samples were centrifuged 10 min at 10,000 rpm, the supernatant removed to a new tube and the concentration determined spectrophotometrically according to the methods of Bradford (1976). See, Bradford M M (1976) A rapid and sensitive method for the quantitation of microgram quantities of protein utilizing the principle of protein-dye binding. […]

## NC1(C(=O)O)CC1 [ACC, 1-aminocyclopropane-1-carboxylic acid]
acs6/acs6 plants [1]; acs6 leaves not sheathed, plants watered daily with 100 μM ACC for 7 days
  senescence of leaves that were not sheathed (visual): did not affect acs6 leaves that were not sheathed
acs6/acs6 plants [1]; acs6 leaves sheathed 7 days at 20 DAP, plants watered daily with 100 μM ACC
  dark-induced senescence (visual): dark-induced senescence similar to that of wild-type leaves was observed
acs6/acs6 plants [2]; ACC-treated acs6 leaves that remained in the light
  loss of Rubisco: No loss of Rubisco was observed
acs6/acs6 plants [2]; dark-treated acs6 leaves watered with 100 μM ACC
  loss of Rubisco: lost an amount of Rubisco similar to that of dark-treated B73 leaves
acs6/acs6 plants [3]; acs6 leaves, 7 day dark treatment, watered with 100 μM ACC
  retention of chlorophyll a+b compared with wild-type leaves: did not do so when watered with 100 μM ACC
acs6/acs6 plants [3]; unsheathed leaves of acs6 mutants watered with ACC
  loss of chlorophyll: chlorophyll was not lost
acs6/acs6 plants [4]
  retention of total soluble leaf protein compared with wild-type leaves: did not do so when watered with 100 μM ACC
